Experimental data reported in patent US9486507B2, “Pro-coagulant compounds and methods of use thereof” (priority 2011, dated 2016).
Values joined by “and” are separate entries in the source; they are usually repeats but may differ in a detail not shown here. Equal values may be shown once.

Legend:
[1] = system: FVIII deficient human plasma; assay: Thrombin generation assay (TGA) in FVIII-deficient plasma; assay type: biochemical; design: key to Thrombin Above Baseline (nM): 1-10 nM (1) or 1-29 nM (2) (+); 11-20 nM (1) or 30-59 nM (2) (++); 21-30 nM (1) or 60-90 nM (2) (+++); >30 nM (1) or >90 nM (2) (++++); At or about baseline (−)
[2] = target: FIXa (Homo sapiens, UniProt P00740); assay: FXa generation assay with human FIXa; assay type: biochemical; design: purchased Haematologic Technologies; conditions: for Vmax: class symbols
Chain of FIXa (P00740 47-191 limits assumed): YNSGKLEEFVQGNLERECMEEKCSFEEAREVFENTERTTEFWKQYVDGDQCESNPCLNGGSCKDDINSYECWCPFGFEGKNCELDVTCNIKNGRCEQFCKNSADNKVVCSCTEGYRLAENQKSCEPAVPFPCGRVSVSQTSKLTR
Chain of FIXa (P00740 227-461 limits assumed): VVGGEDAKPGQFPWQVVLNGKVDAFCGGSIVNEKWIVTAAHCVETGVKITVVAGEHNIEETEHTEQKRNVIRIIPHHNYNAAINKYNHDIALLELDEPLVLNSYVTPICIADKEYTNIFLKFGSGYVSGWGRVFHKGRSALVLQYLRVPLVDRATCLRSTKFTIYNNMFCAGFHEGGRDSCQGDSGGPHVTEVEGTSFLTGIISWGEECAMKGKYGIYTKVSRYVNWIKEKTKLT
Description: FXa generation was utilized to assess the capability of the compounds of the present disclosure to enhance the catalytic activities of FIXa and/or FVIIa.
To measure the catalytic activity of FIXa, FIXa was mixed with FX and phospholipids in the presence of calcium chloride. Under these conditions FIXa cleaves the zymogen FX into the active form FXa.
The generation of FXa is monitored by the change in absorbance of the reaction at 405 nm due to the presence of a cleavable FXa chromogenic substrate (S-2765; Z-D-Arg-Gly-Arg-pNA; cleavage of p-nitroaniline). […] The kit contains all the FXa generation components, however, FIXa and FX obtained from this kit are from a bovine origin and were replaced with purified human FIXa or human FVIIa and human FX (Haematologic Technologies).
The assay was also modified to enhance the screening throughput. Instead of the sequential addition, all the assay components were mixed and added simultaneously to the purified compound to be assayed. A 125 μl reaction mix of the assay components was prepared in the buffer supplied by the manufacturer (50 mM Tris 7.3, and 1% BSA). […] The reaction mix (125 ul) was then added to 25 ul of compound diluted in water in a Costar-3651 flat bottom 96-well plate. […] The absorbance was monitored over a period of 1 hour at 405 nm using a plate reader (Synergy 2, Biotek).
The 405 nm absorbance data were then analyzed to obtain the slope of the first derivative which reflects the rate of change in absorbance. The first derivative slope data for each compound concentration were plotted against the compound concentration and fitted to a four-parameter equation to obtain the EC50 and Vmax values for each compound tested.

[3] = system: human HemA (severe) whole blood; assay: ROTEM in human HemA whole blood; assay type: biochemical; conditions: 30 min pre-incubation
Description: Briefly, lyophilized and citrated FVIII deficient human plasma (Siemens) was reconstituted with 1 mL of distilled water, allowed to stand for 20 min at RT and mixed well before use. Alternatively, an aliquot of citrated (non-lyophilized) FVIII deficient human plasma (HRF, George King, Precision Biologics, or real-time donors) was thawed for 10 min in a 37° C. water bath and when needed centrifuged at 2800 g for 5 min at 25° C. FVIII deficient plasma was spiked with lyophilized platelets (Helena Laboratories, final concentration 0.5×10^8 cells/ml) and compounds, FVIII, or both compound and FVIII. Dilutions of compounds of the present disclosure and controls, such as FVIII, were prepared in PBS (—Ca, —Mg). Next, 300 μl of the spiked plasma was transferred to a ROTEM cup already containing 20 μl of StarTEM (concentrated calcium chloride solution) and 20 μl of lipidated TF (American Diagnostica, final concentration 10 fM) or Kaolin (Sigma-Aldrich, final concentration 0.4 μg/ml) and recording was initiated. The cups were maintained at 37° C. during the testing.
The only difference from the above described plasma Rotem is that the experiment is done in human HemA (severe) whole blood. No platelets were added as they are already present the in whole blood.

[4] = system: platelets; assay: Platelet aggregation (aggregometer); assay type: cell-based; conditions: compound 5 about 30 μM; compound 22 10 μM and 30 μM
Excerpt: ADP was used as a positive control for platelet aggregation.

[5] = system: FVIII deficient human plasma; assay: Rotational thromboelastometry (ROTEM) in FVIII-deficient human plasma; assay type: biochemical; conditions: human HemA plasma (HRF)
Description: Compounds of the present disclosure were tested by rotational thromboelastometry to evaluate coagulation parameters such as clotting time (CT), α-angle, clot formation time (CFT), maximum clot firmness (MCF). Briefly, lyophilized and citrated FVIII deficient human plasma (Siemens) was reconstituted with 1 mL of distilled water, allowed to stand for 20 min at RT and mixed well before use. Alternatively, an aliquot of citrated (non-lyophilized) FVIII deficient human plasma (HRF, George King, Precision Biologics, or real-time donors) was thawed for 10 min in a 37° C. water bath and when needed centrifuged at 2800 g for 5 min at 25° C. FVIII deficient plasma was spiked with lyophilized platelets (Helena Laboratories, final concentration 0.5×10^8 cells/ml) and compounds, FVIII, or both compound and FVIII. Dilutions of compounds of the present disclosure and controls, such as FVIII, were prepared in PBS (—Ca, —Mg). Next, 300 μl of the spiked plasma was transferred to a ROTEM cup already containing 20 μl of StarTEM (concentrated calcium chloride solution) and 20 μl of lipidated TF (American Diagnostica, final concentration 10 fM) or Kaolin (Sigma-Aldrich, final concentration 0.4 μg/ml) and recording was initiated. The cups were maintained at 37° C. during the testing.

[6] = system: 10% FVIII-deficient human plasma; assay: Modified activated partial thromboplastin time (aPTT*) assay; assay type: biochemical
Description: For the activated Partial Thromboplastin Time (aPTT) assay peptides to be tested were first diluted in 10% FVIII-deficient human plasma. For the aPTT* the peptides were diluted in 10% FVIII-deficient human plasma that contained traces of hFIXa (anywhere between 0 and 8.8 nM hFIXa depending on the assay) in Tris/NaCl/BSA buffer. The peptides were incubated for 10 minutes at room temperature and then assayed for clotting on a Sysmex instrument that recorded the clotting time observed for each sample. The times were compared to those of a standard curve derived from standards with known FVIII activity (U/mL) in order to determine the clotting outcome.

[7] = Precision Biologics FVIII-deficient plasma (2), first Baseline (2) series, 2.5 μM
[8] = Precision Biologics FVIII-deficient plasma (2), first Baseline (2) series, 5 μM
[9] = Precision Biologics FVIII-deficient plasma (2), first Baseline (2) series, 10 μM
[10] = FXa generation assay, 10 nM hFIXa, 100 nM hFX
[11] = Precision Biologics FVIII-deficient plasma (2), second Baseline (2) series, 2.5 μM
[12] = Precision Biologics FVIII-deficient plasma (2), second Baseline (2) series, 5 μM
[13] = Precision Biologics FVIII-deficient plasma (2), second Baseline (2) series, 10 μM
[14] = Precision Biologics FVIII-deficient plasma (2), second Baseline (2) series, 20 μM

Substance | Thrombin Above Baseline (nM) [1, 7] | Thrombin Above Baseline (nM) [1, 8] | Thrombin Above Baseline (nM) [1, 9] | Vmax [2, 10] | Thrombin Above Baseline (nM) [1, 11] | Thrombin Above Baseline (nM) [1, 12] | Thrombin Above Baseline (nM) [1, 13] | other results
PRIRSVGPGSRSASGKLTCLASYCWLFWTGIA | ++ (11-20 nM (1) or 30-59 nM (2) (++)) | +++ (21-30 nM (1) or 60-90 nM (2) (+++)) | +++ (21-30 nM (1) or 60-90 nM (2) (+++)) | (++++) ((++++)>3) |  |  |  | 
PRIRTSGPGSRSASGKLTCLASYCWLFWTGIA | + (1-10 nM (1) or 1-29 nM (2) (+)) | ++ (11-20 nM (1) or 30-59 nM (2) (++)) | ++ (11-20 nM (1) or 30-59 nM (2) (++)) | (++++) ((++++)>3) |  |  |  | 
PRIRTVGPGSRSASGKLTCLASYCWLFWTGIA [Compound 21] |  |  |  | (++++) ((++++)>3) |  |  |  | Clotting time, sec ([3]; 2.5 μM): 1,057 sec and 1,090 sec; α-angle, degrees ([3]; 2.5 μM): 32 degrees; Clotting time ([3]; 5 μM): 930 s; α-angle, degrees ([3]; 5 μM): 32 degrees; Clotting time ([3]; 10 μM): 748 s and 703 s; α-angle, degrees ([3]; 10 μM): 44 degrees and 52 degrees; Clotting time ([3]; 20 μM): 952 s and 625 s; α-angle, degrees ([3]; 20 μM): 42 degrees and 43 degrees
PRIRTVGPGSRSASGKSTCLASYCWLFWTGIA | + (1-10 nM (1) or 1-29 nM (2) (+)) | ++ (11-20 nM (1) or 30-59 nM (2) (++)) | +++ (21-30 nM (1) or 60-90 nM (2) (+++)) | (++++) ((++++)>3) | + (1-10 nM (1) or 1-29 nM (2) (+)) | +++ (21-30 nM (1) or 60-90 nM (2) (+++)) | ++++ (>30 nM (1) or >90 nM (2) (++++)) | Thrombin Above Baseline (nM) [1, 14]: ++++ (>30 nM (1) or >90 nM (2) (++++))
PRIRTVGPGSRSASGKSTCLASYCWLFWTGIA [Compound 22] |  |  |  |  |  |  |  | induction of platelet aggregation [4]: did also not induce platelet aggregation
PRIRTVGPSSRSASGKLTCLASYCWLFWTGIA | + (1-10 nM (1) or 1-29 nM (2) (+)) | ++ (11-20 nM (1) or 30-59 nM (2) (++)) | ++ (11-20 nM (1) or 30-59 nM (2) (++)) | (++++) ((++++)>3) |  |  |  | 
PRIRTVGSGSRSASGKLTCLASYCWLFWTGIA | + (1-10 nM (1) or 1-29 nM (2) (+)) | + (1-10 nM (1) or 1-29 nM (2) (+)) | + (1-10 nM (1) or 1-29 nM (2) (+)) | (++++) ((++++)>3) |  |  |  | 
PRIRTVSPGSRSASGKLTCLASYCWLFWTGIA | ++ (11-20 nM (1) or 30-59 nM (2) (++)) | +++ (21-30 nM (1) or 60-90 nM (2) (+++)) | ++++ (>30 nM (1) or >90 nM (2) (++++)) | (++++) ((++++)>3) |  |  |  | 
PRIRTVSPGSRSASGKSTCLASYCWLFWTGIA |  |  |  | (++++) ((++++)>3) | ++ (11-20 nM (1) or 30-59 nM (2) (++)) | +++ (21-30 nM (1) or 60-90 nM (2) (+++)) | ++++ (>30 nM (1) or >90 nM (2) (++++)) | Thrombin Above Baseline (nM) [1, 14]: ++++ (>30 nM (1) or >90 nM (2) (++++))
PRISTVGPGSRSASGKLTCLASYCWLFWTGIA | + (1-10 nM (1) or 1-29 nM (2) (+)) | + (1-10 nM (1) or 1-29 nM (2) (+)) | + (1-10 nM (1) or 1-29 nM (2) (+)) | (++++) ((++++)>3) |  |  |  | 
PRIrTVGPGSrSASGKLTCLASYCWLFWTGIA [Compound 23] |  |  |  | (++++) ((++++)>3) |  |  |  | Clotting time, sec (avg.) ([5]; 2.5 μM): 983 s; α-angle, degrees (avg.) ([5]; 2.5 μM): 13 degrees; Clotting time, sec (avg.) ([5]; 5 μM): 673 s; α-angle, degrees (avg.) ([5]; 5 μM): 22 degrees; Clotting time, sec (avg.) ([5]; 10 μM): 486 s; α-angle, degrees (avg.) ([5]; 10 μM): 32 degrees; Clotting time, sec (avg.) ([5]; 20 μM): 472 s; α-angle, degrees (avg.) ([5]; 20 μM): 39 degrees
PRSRTVGPGSRSASGKLTCLASYCWLFWTGIA | ++ (11-20 nM (1) or 30-59 nM (2) (++)) | +++ (21-30 nM (1) or 60-90 nM (2) (+++)) | +++ (21-30 nM (1) or 60-90 nM (2) (+++)) | (++++) ((++++)>3) |  |  |  | 
PRSRTVGPGSRSASGKSTCLASYCWLFWTGIA |  |  |  | (++++) ((++++)>3) | ++ (11-20 nM (1) or 30-59 nM (2) (++)) | +++ (21-30 nM (1) or 60-90 nM (2) (+++)) | ++++ (>30 nM (1) or >90 nM (2) (++++)) | Thrombin Above Baseline (nM) [1, 14]: ++++ (>30 nM (1) or >90 nM (2) (++++))
PSIRTVGPGSRSASGKLTCLASYCWLFWTGIA | + (1-10 nM (1) or 1-29 nM (2) (+)) | + (1-10 nM (1) or 1-29 nM (2) (+)) | + (1-10 nM (1) or 1-29 nM (2) (+)) | (++++) ((++++)>3) |  |  |  | 
SRIRTVGPGSRSASGKLTCLASYCWLFWTGIA | ++ (11-20 nM (1) or 30-59 nM (2) (++)) | +++ (21-30 nM (1) or 60-90 nM (2) (+++)) | ++++ (>30 nM (1) or >90 nM (2) (++++)) | (++++) ((++++)>3) |  |  |  | 
SRIRTVGPGSRSASGKSTCLASYCWLFWTGIA |  |  |  | (++++) ((++++)>3) | +++ (21-30 nM (1) or 60-90 nM (2) (+++)) | ++++ (>30 nM (1) or >90 nM (2) (++++)) | ++++ (>30 nM (1) or >90 nM (2) (++++)) | 
SRIRTVSPGSRSASGKSTCLASYCWLFWTGIA |  |  |  | (++++) ((++++)>3) | +++ (21-30 nM (1) or 60-90 nM (2) (+++)) | +++ (21-30 nM (1) or 60-90 nM (2) (+++)) | ++++ (>30 nM (1) or >90 nM (2) (++++)) | Thrombin Above Baseline (nM) [1, 14]: ++++ (>30 nM (1) or >90 nM (2) (++++))
SRSRTVSPGSRSASGKSTCLASYCWLFWTGIA |  |  |  | (++++) ((++++)>3) | +++ (21-30 nM (1) or 60-90 nM (2) (+++)) | ++++ (>30 nM (1) or >90 nM (2) (++++)) | ++++ (>30 nM (1) or >90 nM (2) (++++)) | 
k-MeLeu-TCLASYCWLF |  |  |  |  |  |  |  | Thrombin Above Baseline (nM) ([1]; HRF FVIII-deficient plasma (1), 2.5 μM): + (1-10 nM (1) or 1-29 nM (2) (+)); Thrombin Above Baseline (nM) ([1]; HRF FVIII-deficient plasma (1), 5 μM): −; Thrombin Above Baseline (nM) ([1]; HRF FVIII-deficient plasma (1), 10 μM): −; Thrombin Above Baseline (nM) ([1]; HRF FVIII-deficient plasma (1), 20 μM): + (1-10 nM (1) or 1-29 nM (2) (+)); Vmax ([2]; FXa generation assay using human FIXa): (++++) ((++++)>3); Vmax ([2]; FXa generation assay, 10 nM hFIXa, 100 nM hFX, listed as SEQ ID NO: 232): (+++) ((+++)>2)
k-MeLeu-TCLASYCWLF [Compound 2] |  |  |  | (++++) ((++++)>3) |  |  |  | Clotting time ([6]; aPTT* with FIXa, 5 μM): 50.3 s; Clotting time, sec ([6]; aPTT* with FIXa, 5 μM): 51.1; sec; Clotting time ([6]; aPTT* with FIXa, 10 μM): 42.2 s; Clotting time, sec ([6]; aPTT* with FIXa, 10 μM): 42.9; sec; Clotting time ([6]; aPTT* with FIXa, 20 μM): 42.3 s; Clotting time, sec ([6]; aPTT* with FIXa, 20 μM): 42.4; sec; Clotting time ([6]; aPTT*, FIXa 1 nM): 91.4 s; Clotting time, sec ([6]; aPTT*, FIXa 1 nM): 86.8; sec; Clotting time ([6]; aPTT*, FIXa 2 nM): 49.6 s; Clotting time, sec ([6]; aPTT*, FIXa 2 nM): 51.3; sec; Clotting time ([6]; aPTT*, FIXa 4 nM): 42.7 s; Clotting time, sec ([6]; aPTT*, FIXa 4 nM): 46.0; sec; Clotting time ([6]; aPTT*, FIXa 8 nM): 37.1 s; Clotting time, sec ([6]; aPTT*, FIXa 8 nM): 34.4; sec; Vmax (mOD/min min) ([2]; PL: No): 3.05 mOD/min min; Vmax (mOD/min min) ([2]; PL: Yes): 4.22 mOD/min min
